Data taken from patent publication US20240100062A1, “Methods of Treatment With an Iboga Alkaloid” (priority 2022, published 2024).
Values joined by “and” are separate entries in the source; they are usually repeats but may differ in a detail not shown here. Equal values may be shown once. “Also recorded” adds a separate entry of the source.

Legend:
[1] = tested on: humans; details: in vivo; cited from earlier work
[2] = tested on: cortical neuron; details: in vitro; cited from earlier work
[3] = tested on: special operations veterans; experiment: Hopkins Verbal Learning Test-Revised (HVLT-R), Example 1 study; assay type: in vivo, human
[4] = tested on: special operations veterans; experiment: Safety monitoring (adverse events, QTc by ECG), Example 1 study; assay type: in vivo, human
Procedure: With subjects in the fasting state, an intravenous infusion of 1 gram of magnesium sulfate was administered 1-2 hours prior to treatment. […] Medical staff (MD, RN, or EMT) were onsite at a ratio of at least 1 staff per 2 patients throughout treatment for monitoring and management, but no specific coaching or psychological support was provided during treatment.

[5] = tested on: special operations veterans; experiment: Delis-Kaplan Executive Function System (D-KEFS), Example 1 study; assay type: in vivo, human
[6] = tested on: special operations veterans; experiment: Neuropsychological battery overall, Example 1 study; assay type: in vivo, human; details: post treatment time points
Text: A summary of the results is in Table 1 and Table 1-6 of Example 1. […] In Table 1, neuropsychological test scores are represented as a T score (mean of 50, SD of 10). Unless stated otherwise, a higher score represents better performance.
Neuropsychological testing of the enrolled subjects was designed to examine abilities over several domains of cognitive functioning, including estimated intelligence quotient (IQ), verbal fluency, working memory (visual and auditory), long term memory (visual and auditory), processing speed, sustained attention, problem solving, ability to perceive patterns, executive functioning, such as ability to hold and manipulate or update information in the head, inhibition, ability to organize, plan, and develop solutions to problems. In addition, assessments examining cognitive abilities over several domains of functioning were done to evaluate the safety of ibogaine use. […]

[7] = tested on: special operations veterans; set-up: species or system human; details: in vivo
[8] = tested on: special operations veterans; experiment: Predicted brain age from MRI (brain age model); assay type: in vivo, human
Text: A predictive model of normal aging defined using machine learning in healthy individuals, based on magnetic resonance imaging-derived estimates of gray matter and white matter (Id.) was applied to the MRI images from the subjects enrolled in the study of Example 1. […] There was a significant reversal of brain age from baseline to one month after treatment. The mean decrease in brain age was 1.3 years (corrected p=0.03).
At baseline, the brain age estimate for the 24 subjects was 40.89 years. […] The average decrease in brain age from baseline one month after treatment was 1.4 years.

[9] = tested on: special operations veterans; experiment: Lag projection analysis of BOLD fMRI; assay type: in vivo, human; details: baseline vs about four days post treatment; left orbitofrontal gyrus (lateral and anterior) and inferior frontal gyrus (orbital and triangular); fwec p<0.001
Procedure: fMRI data was also analyzed to inspect activity patterns as a function of time. A lag projection analysis measures temporal dynamics of blood oxygen level-dependent (BOLD) fMRI (Mitra et al., PNAS, E2235-E2244, 2015). Directed flow transfer of information is analyzed by comparing lag-correlation shift between voxel pairs. The average lag structure of a voxel indicates relative earliness or lateness in the brain, as a measure of whether the region is a source or sink of information. A paired T-test of fMRI images at baseline and about four days post treatment was done. […] These regions are involved in language formation, response inhibition and regulating goal-directed behavior. Slowing may reflect sustained processing and influence over the brain across long time scales.

[10] = tested on: male veterans with a history of TBI; experiment: Pseudo-continuous arterial spin labeling MRI, cerebral blood flow (Example 3); assay type: in vivo, human; details: paired t-test across baseline, first post-treatment scan and 1 month post-treatment; p<0.001
Procedure: Arterial spin labeling (ASL) MR was used to measure cerebral blood flow in some of the subjects of the subjects enrolled in the study of Example 1. As described in Example 3, pseudo-continuous ASL (pcASL) was performed on the subject at baseline, about 1 week after treatment, and one-month after treatment. […] A first metric of interest was change in net quantity (mL/100 g tissue/min) of blood entering different regions of the brain. Images of the left posterior orbital gyrus, left anterior insula, left and right cerebral white matter at baseline and 1-week post treatment (images not shown) were analyzed and compared. […] A paired t-test across 3 time points—baseline (pre-treatment), 1 week post-treatment, and 1 month post-treatment—was employed.
A second metric of interest was regression between change in clinical scores versus change in relative cerebral blood perfusion from baseline to one-month post treatment. Multiple regression with clinical scores at baseline and one-month post treatment was used. […]
A first metric of interest was change in net quantity (mL/100 g tissue/min) of blood entering different regions of the brain. Images of the left posterior orbital gyrus, left anterior insula, left and right cerebral white matter at baseline and 1-2 days post treatment (images not shown) were analyzed and compared. […]

[11] = tested on: BDNF and GDNF; details: cited from earlier work

## CCC1CC2CC3c4[nH]c5ccc(OC)cc5c4CCN(C2)C13 (stereo not drawn) [ibogaine, Ibogaine]
[1]
  Incidence of cardiac arrest in people treated: Approximately 1 in 300 people
  Neurotoxicity reported in humans: only transient ataxia has been reported in humans
  QT interval prolongation: instances of subsequent fatal arrhythmia
[2]
  Cortical neuron dendritic arbor complexity: increases cortical neuron dendritic arbor complexity
[3]; 1-wk post, baseline 47.4 ± 10.1, p(FDR) 0.583
  Verbal Memory (HVLT-R), mean ± SD: 49.0 ± 9.2 T score
[3]; baseline vs 1-month post
  Verbal Memory (HVLT-R), D: 0.47
[3]; baseline vs 1-wk post
  Verbal Memory (HVLT-R), D: 0.17
[3]; one-month follow-up
  Verbal memory improvement: significant improvement
[4]; 1 participant, during oneirogenic effects
  Participants treated for insomnia: 3%
[4]; 2 participants, during oneirogenic effects
  Participants treated for hypertension: 7%
[4]; 3 participants, during oneirogenic effects
  Participants treated for anxiety: 10%
[4]; 7 participants, during oneirogenic effects
  Participants treated for nausea: 23%
[4]; 12 participants, during oneirogenic effects
  Participants treated for headache: 40%
[4]; 30 participants
  Transient cerebellar signs such as mild ataxia and intention tremor: All participants experienced transient cerebellar signs
[4]; 30 participants, 12.1±1.2 mg/kg oral ibogaine with IV magnesium sulfate, 1.2 mg/kg
  Unexpected or serious adverse events: no unexpected or serious treatment-emergent side effects; also recorded: no unexpected or serious adverse events
[4]; continuous 5-lead ECG 12-16 hours after ibogaine
  QTc prolongation: no instances of a concerning prolongation of QTc
[5]; 1-mo. post, baseline 57.0 ± 11.7, p(FDR) <0.001
  Phonemic Fluency (D-KEFS Verbal Fluency), mean ± SD: 64.0 ± 10.1 T score
[5]; baseline vs 1-month post
  Cognitive Flexibility Composite, D: 0.74
  Cognitive Inhibition (D-KEFS Color/Word Interference, Condition 3), D: 0.62
  Phonemic Fluency (D-KEFS Verbal Fluency), D: 1.11
  Problem Solving (D-KEFS TT, Total Achievement Score), D: 0.44
  Semantic Fluency (D-KEFS Verbal Fluency), D: 0.24
[5]; baseline vs 1-wk post
  Cognitive Flexibility Composite, D: 0.43
  Phonemic Fluency (D-KEFS Verbal Fluency), D: 0.52
  Problem Solving (D-KEFS TT, Total Achievement Score), D: 0.49
  Semantic Fluency (D-KEFS Verbal Fluency), D: 0.02
[5]; post treatment time points
  Language (semantic fluency) performance change: No significant performance changes
[6]
  Declines across performance domains: No declines were noted across any performance domain
[7]
  Detection (CPT-3 Detection), D: 0.86
  Reaction Time (CPT-3 Reaction Time), D: 0.52 and 0.29
  Reaction Time (CPT-3 Reaction Time), mean ± SD: 44.1 ± 6.8 T score and 46.4 ± 8.1 T score
  Slowing of reaction time, D: 0.29-0.52
  Sustained Attention (CPT-3 Hit Reaction Time Block Change), mean ± SD: 50.8 ± 7.9 T score and 51.2 ± 7.7 T score
[8]; baseline to one month after treatment, corrected p=0.03 (FIG. 9A)
  Mean decrease in brain age: 1.3 years
[8]; one-month post treatment (FIG. 9D)
  Estimated brain age compared to accelerated intermittent theta burst stimulation (aiTBS): provided a reducing in estimated brain age one-month post treatment compared to aiTBS
[8]; weights .5-.5-1, Sig 0.008, 95% 0.352 to 2.087
  Brain age contrast Estimate, Baseline & 1 wk. vs 1 mo.: 1.220 years
[9]
  Lag structure change (BOLD fMRI): relative slowing
[10]
  Change in absolute cerebral blood flow: No significant changes
[11]
  Transcription of neurotrophic factors including BDNF and GDNF: increases the transcription of neurotrophic factors
